Assay results: ChEMBL document CHEMBL1201862, “PubChem BioAssay data set” (2004)
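48-hour exposure; five concentrations; linearly interpolated endpoints. GI50 marks 50% less growth.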 Calls of active or inactive are those of the source. Rule as the data show it: active = GI50 up to about 1.1 µM and inactive = higher.

How the values were obtained:
Test in all cases: DTP human tumour cell line panel, 48 h
[1] = tested on: CCRF-CEM
[2] = tested on: SK-MEL-2
[3] = tested on: SW-620
[4] = tested on: UO-31
[5] = tested on: RPMI-8226
[6] = tested on: SK-MEL-5
[7] = tested on: M14
[8] = tested on: TK-10
[9] = tested on: RXF 393
[10] = tested on: HL-60
[11] = tested on: SNB-75
[12] = tested on: 786-0
[13] = tested on: SNB-19
[14] = tested on: SR
[15] = tested on: CAKI-1
[16] = tested on: U-251
[17] = tested on: SF-295

Measured: GI50

CCC1C(C(=O)Nc2ccccc2C)=C(C)NC(C)=C1c1ccccc1C (stereo not drawn)
inactive: [1] 55.1 µM | [2] > 100 µM | [3] > 43.1 µM | [4] > 100 µM | [5] 31.8 µM | [6] > 100 µM | [7] > 100 µM | [8] > 100 µM | [9] > 100 µM | [10] 11.6 µM | [11] > 100 µM | [12] > 100 µM | [13] > 100 µM | [14] 2.88 µM | [15] > 100 µM | [16] > 100 µM | [17] > 100 µM

C/C(CC(=O)Nc1ccc([N+](=O)[O-])cc1)=N\NC(N)=O
inactive: [1] > 44.6 µM | [2] > 100 µM | [3] > 100 µM | [4] > 100 µM | [5] > 46.1 µM | [6] > 68.7 µM | [7] > 76.6 µM | [8] > 100 µM | [9] > 100 µM | [10] > 100 µM | [11] > 100 µM | [12] > 100 µM | [13] > 100 µM | [14] 24.4 µM | [15] > 100 µM | [16] > 100 µM | [17] > 100 µM

CCOC(=O)Cc1csc(Nc2ccccc2[N+](=O)[O-])n1
inactive: [1] > 100 µM | [2] > 100 µM | [3] > 57.5 µM | [4] > 100 µM | [5] > 100 µM | [6] > 100 µM | [7] > 100 µM | [8] > 100 µM | [9] > 100 µM | [10] > 100 µM | [11] > 100 µM | [12] > 100 µM | [13] > 100 µM | [14] 29.7 µM | [15] > 100 µM | [16] > 100 µM | [17] > 100 µM

Cn1c(=O)oc2cc(C3CCC(=O)N3Cc3csc(-c4ccccc4)n3)ccc21 (stereo not drawn)
inactive: [1] > 100 µM | [2] > 100 µM | [3] > 100 µM | [4] 52.5 µM | [5] > 100 µM | [6] > 100 µM | [7] > 100 µM | [8] > 100 µM | [9] 39.9 µM | [10] 79.8 µM | [11] 25.3 µM | [12] > 100 µM | [13] > 100 µM | [14] 63.7 µM | [15] > 100 µM | [16] > 100 µM | [17] > 100 µM
